These results are taken from patent US20210079476A1, “BIOMARKERS OF RENAL OSTEODYSTROPHY TYPE” (The Trustees of Columbia University in the City of New York, priority 2018, published 2021).

“Also recorded” adds a separate entry of the source.

Assay [1] concerns Cy/+ (CKD) rat. The settings on record: Cy/+ CKD rat model; cited from earlier work.
Assay [2] concerns miRNA 30b, 30c, 125b and 155. It is filed as in vivo, rat. The settings on record: CKD rats. An excerpt: (§1) The Cy/+ rat model of CKD was used to assess bone expression of miRNAs. Cy/+ rats are characterized by an autosomal dominant progressive cystic kidney disease that is […] with human ADPKD(63). […] The Cy/+IU colony of rats has been bred for nearly 20 years. The model recapitulates CKD-MBD with progressive kidney disease, hyperphosphatemia, secondary hyperparathyroidism, elevated FGF-23, resulting in ROD and vascular calcification. Importantly, the slowly progressive nature of the model allows for examination of interventions that differentially affect bone remodeling. […] In brief, CKD animals (n=8-10 each group) began treatment at 25 weeks for a total of 10 weeks and received 1) no treatment (control CKD=high PTH/high turnover, 2) 3% calcium in the drinking water (CKD/Ca group=low PTH/low turnover), or 3) a single injection of zoledronic acid (CKD/Zol group=high PTH/low turnover). At 35 weeks of age, animals were euthanized and bone tissue were collected. Bone histomorphometry as previously reported (67). RNA was isolated from tibia and bone miRNA expression determined by real time PCR using TaqMan miRNA assay as above.
The Cy/+ rat model of CKD was used to assess bone expression of miRNAs. […] The Cy/+IU colony of rats has been bred at Indiana University for nearly 20 years. The model recapitulates CKD-MBD with progressive kidney disease, hyperphosphatemia, secondary hyperparathyroidism, elevated FGF-23, resulting in ROD and vascular calcification. Importantly, the slowly progressive nature of the model allows for examination of interventions that differentially affect bone remodeling. Specifically, we have induced low turnover bone remodeling by two methods: with calcium in the drinking water (calcium binders) and zoledronic acid.^41, 42 In brief, CKD animals (n=8 to 10 each group) began treatment at 25 weeks for a total of 10 weeks and received: (i) no treatment (control CKD=high PTH/high turnover; (ii) 3% calcium in the drinking water (CKD/Ca group=low PTH/low turnover); or (iii) a single injection of 20 μg/kg of zoledronic acid (CKD/Zol group=high PTH/low turnover). At 35 weeks of age, animals were euthanized and bone tissue was collected. Bone histomorphometry was performed as previously reported.^43 RNA was isolated from tibia, and bone miRNA expression was determined by real-time PCR using TaqMan miRNA assay as described above. All procedures were reviewed and approved by the Indiana University School of Medicine Institutional Animal Care and Use Committee.

For assay [3], the system named is CKD rats (Cy/+). In words: Cy/+ rat model of CKD: bone turnover by histomorphometry after treatment. It is filed as in vivo.
From the text: as §1
The Cy/+ rat model of CKD was used to assess bone expression of miRNAs. […] The Cy/+IU colony of rats has been bred at Indiana University for nearly 20 years. […]

Assay [4] concerns CKD rats (Cy/+). The settings on record: Cy/+ rat model; cited from earlier work.

For the compound `C=C1/C(=C\C=C2/CCC[C@]3(C)[C@@H]([C@H](C)CCCC(C)(C)O)CC[C@@H]23)C[C@@H](O)C[C@@H]1O` [Calcitriol], in assay [1], the suppressing bone turnover entry is on record as “not effective”.
As to `[Ca+2]` [calcium], the “levels of miRNAs, low turnover induced by dietary calcium compared with zoledronic acid” value in assay [2] (bone tissue) is listed as “did not differ”. In assay [2] (tibia, 35 weeks of age), the “bone-tissue expression of miRNA-30b vs rats with high turnover” value is “low expression; also recorded: lower”, the “bone-tissue expression of miRNA-30c vs rats with high turnover” value is recorded as “low expression; also recorded: lower”, the “bone-tissue expression of miRNA-125b vs rats with high turnover” value was “low expression; also recorded: lower” and the “bone-tissue expression of miRNA-155 vs rats with high turnover” value is “low expression; also recorded: lower”. Moreover, in assay [3] (same treatment groups, untreated CKD = high PTH), the “PTH status of the treated group” value was “low PTH”. The “type of bone turnover induced by the intervention (histomorphometry)” value in assay [3] (treatment from 25 weeks of age for 10 weeks, 3% calcium in drinking water or single injection of zoledronic acid, untreated CKD = high turnover) is reported as “low turnover”. Also, the “induction of low turnover bone remodeling” value in assay [4] was “low turnover bone remodeling has been induced”.
